From PubChem BioAssay AID1963863 (Molecular Pharmacology Branch, DTP, NCI, 2024)

Test system: 931267-113-T-J1-PDC KRAS spheroid with HUVEC/MSC, viability
Assay: Anticancer human tumor 931267-113-T-J1-PDC patient-derived colon adenocarcinoma cell line growth inhibition [KRAS2]
Conditions: for IC50: curve of first compound; for viability, T/C: stronger effect = lower value
Summary of the method: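 KRAS-mutant tumor cells were grown as spheroids with HUVEC endothelial cells and human MSCs as stroma. Targeted agents were tested alone and with KRAS pathway inhibitors. Doses started at or near clinical Cmax, or 10 microM, descending half-log.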

[1] = second compound 0.0316 µM, first compound 0.0316 µM
[2] = second compound 0.0316 µM, first compound 0.1 µM
[3] = second compound 0.0316 µM, first compound 0.316 µM
[4] = second compound 0.0316 µM, first compound 1 µM
[5] = second compound 0.0316 µM, first compound 3.16 µM
[6] = second compound 0.1 µM, first compound 0.01 µM
[7] = second compound 0.1 µM, first compound 0.0316 µM
[8] = second compound 0.1 µM, first compound 0.1 µM
[9] = second compound 0.1 µM, first compound 0.316 µM
[10] = second compound 0.1 µM, first compound 1 µM
[11] = second compound 0.1 µM, first compound 3.16 µM
[12] = second compound 0.316 µM, first compound 0.01 µM
[13] = second compound 0.316 µM, first compound 0.0316 µM
[14] = second compound 0.316 µM, first compound 0.1 µM
[15] = second compound 0.316 µM, first compound 0.316 µM
[16] = second compound 0.316 µM, first compound 1 µM
[17] = second compound 0.316 µM, first compound 3.16 µM
[18] = second compound 1 µM, first compound 0.01 µM
[19] = second compound 1 µM, first compound 0.0316 µM
[20] = second compound 1 µM, first compound 0.1 µM
[21] = second compound 1 µM, first compound 0.316 µM
[22] = second compound 1 µM, first compound 1 µM
[23] = second compound 1 µM, first compound 3.16 µM
[24] = second compound 3.16 µM, first compound 0.01 µM
[25] = second compound 3.16 µM, first compound 0.0316 µM
[26] = second compound 3.16 µM, first compound 0.1 µM
[27] = second compound 3.16 µM, first compound 0.316 µM
[28] = second compound 3.16 µM, first compound 1 µM
[29] = second compound 3.16 µM, first compound 3.16 µM
[30] = second compound 0.0316 µM, first compound 10 µM
[31] = second compound 0.1 µM, first compound 10 µM
[32] = second compound 0.316 µM, first compound 10 µM
[33] = second compound 1 µM, first compound 10 µM
[34] = second compound 3.16 µM, first compound 10 µM
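Also: compound exposure lasted 7 days before the readout.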
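For viability, T/C in this document: 100% = DMSO vehicle control viability.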

SMILES	IC50 (second compound 0.1 µM)	IC50 (second compound 0.316 µM)	IC50 (second compound 1 µM)	IC50 (second compound 3.16 µM)	viability, T/C [7]	viability, T/C [8]	viability, T/C [9]	viability, T/C [10]	viability, T/C [11]	viability, T/C [13]	viability, T/C [14]	viability, T/C [15]	viability, T/C [16]	viability, T/C [17]	viability, T/C [19]	viability, T/C [20]	viability, T/C [21]	viability, T/C [22]	viability, T/C [23]	viability, T/C [25]	further results
CC1COCCN1c1cc(-c2ccnn2C)c2ccnc(-c3ccn[nH]3)c2n1 (stereo not given) + C=CC(=O)N1CCN(c2nc(OCC3CCCN3C)nc3c2CCN(c2cccc4cccc(C)c24)C3)CC1CC#N	45.4 nM	39.8 nM	25.6 nM	< 10 nM	62.8%	22.2%	18.6%	21.6%	21.5%	56.4%	24.7%	16.8%	18.9%	24.5%	41.3%	12%	12.8%	21.3%	24.1%	0.19%	IC50 (second compound 0.0316 µM): 44.1 nM; viability, T/C (second compound 0.0316 µM, first compound 0.01 µM): 90.9%; viability, T/C [1]: 59%; viability, T/C [2]: 27.8%; viability, T/C [3]: 19.2%; viability, T/C [4]: 18.1%; viability, T/C [5]: 18%; viability, T/C [6]: 122%; viability, T/C [12]: 75.6%; viability, T/C [18]: 88.9%; viability, T/C [24]: 0.25%; viability, T/C [26]: 0.38%; viability, T/C [27]: 0.14%; viability, T/C [28]: 0.14%; viability, T/C [29]: 0.94%
CC1OCC2(CCN(c3cnc(Sc4ccnc(N)c4Cl)c(N)n3)CC2)C1N (stereo not given) + C=CC(=O)N1CCN(c2nc(OCC3CCCN3C)nc3c2CCN(c2cccc4cccc(C)c24)C3)CC1CC#N	> 10000 nM	> 10000 nM	> 10000 nM	< 31.6 nM	98.3%	75.6%	79.1%	75.2%	71.1%	93%	87.8%	69.1%	70.2%	75.6%	78%	65.9%	55.2%	68.7%	68.8%	0.31%	IC50 (second compound 0.0316 µM): > 10000 nM; viability, T/C [1]: 111%; viability, T/C [2]: 81.9%; viability, T/C [3]: 77.3%; viability, T/C [4]: 58.2%; viability, T/C [5]: 80%; viability, T/C [30]: 83%; viability, T/C [31]: 99.3%; viability, T/C [32]: 69.6%; viability, T/C [33]: 61.2%; viability, T/C [26]: 0.29%; viability, T/C [27]: 0.36%; viability, T/C [28]: 0.26%; viability, T/C [29]: 0.28%; viability, T/C [34]: 0.26%
Cn1nccc1Nc1nccc(-c2cc3c(s2)C(C)(C)N(CCN2CCOCC2)C3=O)n1 + C=CC(=O)N1CCN(c2nc(OCC3CCCN3C)nc3c2CCN(c2cccc4cccc(C)c24)C3)CC1CC#N	526 nM	400 nM	365 nM	< 31.6 nM	88.9%	92%	57.8%	37.8%	4.83%	107%	91%	55.7%	25.5%	6.39%	88.5%	65.9%	59.7%	23.2%	3.82%	0.35%	IC50 (second compound 0.0316 µM): 424 nM; viability, T/C [1]: 118%; viability, T/C [2]: 97.7%; viability, T/C [3]: 59.8%; viability, T/C [4]: 23%; viability, T/C [5]: 7.09%; viability, T/C [30]: 4.66%; viability, T/C [31]: 4.43%; viability, T/C [32]: 4.33%; viability, T/C [33]: 2.07%; viability, T/C [26]: 0.25%; viability, T/C [27]: 0.29%; viability, T/C [28]: 0.14%; viability, T/C [29]: 0.14%; viability, T/C [34]: 0.22%
CC(=O)OC12COC1CC(O)C1(C)C(=O)C(O)C3=C(C)C(OC(=O)C(O)C(NC(=O)OC(C)(C)C)c4ccccc4)CC(O)(C(OC(=O)c4ccccc4)C21)C3(C)C (stereo not given) + CC1OCC2(CCN(c3cnc(Sc4ccnc(N)c4Cl)c(N)n3)CC2)C1N	> 3160 nM	> 3160 nM	> 3160 nM	289 nM	90.5%	74.8%	80%	86.2%	91.4%	90.5%	64.9%	65.4%	78.6%	58.5%	111%	108%	82.8%	79.5%	93.2%	74.3%	IC50 (second compound 10 µM): 278 nM; viability, T/C [6]: 88.4%; viability, T/C [12]: 74.8%; viability, T/C [18]: 95.2%; viability, T/C [24]: 52.3%; viability, T/C [26]: 53%; viability, T/C [27]: 50.6%; viability, T/C [28]: 48.9%; viability, T/C [29]: 49.7%; viability, T/C (second compound 10 µM, first compound 0.01 µM): 59%; viability, T/C (second compound 10 µM, first compound 0.0316 µM): 63.4%; viability, T/C (second compound 10 µM, first compound 0.1 µM): 66.8%; viability, T/C (second compound 10 µM, first compound 0.316 µM): 38%; viability, T/C (second compound 10 µM, first compound 1 µM): 50.4%; viability, T/C (second compound 10 µM, first compound 3.16 µM): 56.6%
